This is an account of results in the supplement of paper PMC11061612.

Assay [1] has as its system U-698-M. The assay can be described thus: Bliss excess, mean over the matrix (fraction); higher = more synergy. To be noted: U-[…], B-Cell Non-Hodgkin's Lymphoma. The essentials: (§1)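 Cell lines grown in DMEM/F12 or RPMI with 10% FBS were plated in 1536-well plates and held 24 hours at 37°C, 5% CO2 before 72 hours of exposure to two-drug dose matrices, with DMSO typically at 0.2%. CellTiter-Glo 2.0 luminescence gave viability, which was converted to inhibition. Vehicle wells were set to 0 and blank wells to 1. Combination Emax is the second-highest inhibition in the matrix, and Bliss excess is the observed combination effect minus the expected EA + EB − EA·EB, where EA and EB are the single-agent effects.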

Assay [2] relates to U-698-M. The assay can be described thus: combination Emax (second highest fraction inhibited in the dose matrix, 72 h); higher = more inhibition. To be noted: B-Cell Non-Hodgkin's Lymphoma. The essentials:
as §1

Where [3] appears, read: first compound max 1 µM, partner max 1 µM.
Setting [4] is: first compound max 1 µM, partner max 1 µM, 7x7.
Setting [5] is: first compound max 1 µM, partner max 10 µM, 7x7.
[6] abbreviates: first compound max 3 µM, partner max 3 µM.
Where [7] appears, read: first compound max 1 µM, partner max 0.3 µM.
The mark [8] stands for this setting: first compound max 1 µM, partner max 10 µM.
Setting [9] is: first compound max 1 µM, partner max 3 µM, 7x7.
The mark [10] stands for this setting: first compound max 1 µM, partner max 0.3 µM, 7x7.
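Throughout, for Bliss excess, mean over the matrix: after 72 h of two-drug dosing.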

For `CN(C)CCCOc1ccc(-c2ccc3ncc4c(c3c2)n(C2CCOCC2)c(=O)n4C)cn1` [AZD0156] + C=CCn1c(=O)c2cnc(Nc3ccc(N4CCN(C)CC4)cc3)nc2n1-c1cccc(C(C)(C)O)n1 [AZD1775], the Bliss excess in the assay with U-698-M [1] (setting [3]) was -0.0399. Besides, in the assay with U-698-M [2] (setting [3]), the “combination Emax” value came out at 0.984. For `CN(C)CCCOc1ccc(-c2ccc3ncc4c(c3c2)n(C2CCOCC2)c(=O)n4C)cn1` [AZD0156] + CCN(CCO)CCCOc1ccc2c(Nc3cc(CC(=O)Nc4cccc(F)c4)[nH]n3)ncnc2c1 [AZD2811], the Bliss excess with U-698-M [1] (setting [4]) was -0.014. The “combination Emax” value with U-698-M [2] (setting [4]) is 0.168. Consider `CN(C)CCCOc1ccc(-c2ccc3ncc4c(c3c2)n(C2CCOCC2)c(=O)n4C)cn1` [AZD0156] + C[C@@H]1COCCN1C2=NC(=NC(=C2)C3(CC3)[S@](=N)(=O)C)C4=C5C=CNC5=NC=C4 [AZD6738], for which the Bliss excess in the assay on U-698-M [1] (setting [5]) amounted to 0.0473. Moreover, the “combination Emax” value in the assay with U-698-M [2] (setting [5]) is 0.978. Regarding `CN(C)CCCOc1ccc(-c2ccc3ncc4c(c3c2)n(C2CCOCC2)c(=O)n4C)cn1` [AZD0156] + O=C(c1cc(Cc2n[nH]c(=O)c3ccccc23)ccc1F)N1CCN(C(=O)C2CC2)CC1 [Olaparib], in the assay on U-698-M [1] (setting [6]), the Bliss excess came to 0.0153. The “combination Emax” value in the assay with U-698-M [2] (setting [6]) is 0.378.

Consider `C=CCn1c(=O)c2cnc(Nc3ccc(N4CCN(C)CC4)cc3)nc2n1-c1cccc(C(C)(C)O)n1` [AZD1775] + C1CN(CCC1(C(=O)N[C@@H](CCO)C2=CC=C(C=C2)Cl)N)C3=NC=NC4=C3C=CN4 [Capivasertib], for which the Bliss excess in the assay with U-698-M [1] (setting [6]) was -0.0654. Further, in the assay on U-698-M [2] (setting [6]), the “combination Emax” value stood at 0.959.

Regarding `C=CCn1c(=O)c2cnc(Nc3ccc(N4CCN(C)CC4)cc3)nc2n1-c1cccc(C(C)(C)O)n1` [AZD1775] + CCc1c2c(nc3ccc(O)cc13)-c1cc3c(c(=O)n1C2)COC(=O)[C@]3(O)CC [SN-38], the Bliss excess in the assay with U-698-M [1] (setting [7]) was 0.0364. The “combination Emax” value in the assay with U-698-M [2] (first compound max 1 µM, partner max 0.3 µM, may be a limit of the assay) came out at 1. In the case of `C=CCn1c(=O)c2cnc(Nc3ccc(N4CCN(C)CC4)cc3)nc2n1-c1cccc(C(C)(C)O)n1` [AZD1775] + C[C@@H]1COCCN1C2=NC(=NC(=C2)C3(CC3)[S@](=N)(=O)C)C4=C5C=CNC5=NC=C4 [AZD6738], the Bliss excess with U-698-M [1] (setting [8]) stood at 0.0479. Also, the “combination Emax” value with U-698-M [2] (first compound max 1 µM, partner max 10 µM, may be a limit of the assay) is 1. As to `C=CCn1c(=O)c2cnc(Nc3ccc(N4CCN(C)CC4)cc3)nc2n1-c1cccc(C(C)(C)O)n1` [AZD1775] + Nc1ccn([C@@H]2O[C@H](CO)[C@@H](O)C2(F)F)c(=O)n1 [Gemcitabine], the Bliss excess with U-698-M [1] (setting [7]) was 0.116. Moreover, in the assay on U-698-M [2] (setting [7]), the “combination Emax” value stood at 0.956. Consider `C=CCn1c(=O)c2cnc(Nc3ccc(N4CCN(C)CC4)cc3)nc2n1-c1cccc(C(C)(C)O)n1` [AZD1775] + O=C(c1cc(Cc2n[nH]c(=O)c3ccccc23)ccc1F)N1CCN(C(=O)C2CC2)CC1 [Olaparib], for which the Bliss excess with U-698-M [1] (setting [8]) is -0.0077. In the assay with U-698-M [2] (setting [8]), the “combination Emax” value amounted to 0.967. For `CCN(CCO)CCCOc1ccc2c(Nc3cc(CC(=O)Nc4cccc(F)c4)[nH]n3)ncnc2c1` [AZD2811] + C=CCn1c(=O)c2cnc(Nc3ccc(N4CCN(C)CC4)cc3)nc2n1-c1cccc(C(C)(C)O)n1 [AZD1775], in the assay on U-698-M [1] (setting [3]), the Bliss excess is -0.0493. In addition, the “combination Emax” value in the assay on U-698-M [2] (setting [3]) came to 0.956.

As to `CCN(CCO)CCCOc1ccc2c(Nc3cc(CC(=O)Nc4cccc(F)c4)[nH]n3)ncnc2c1` [AZD2811] + C[C@@H]1COCCN1C2=NC(=NC(=C2)C3(CC3)[S@](=N)(=O)C)C4=C5C=CNC5=NC=C4 [AZD6738], in the assay on U-698-M [1] (setting [5]), the Bliss excess came out at 0.0016. For the same compound, the “combination Emax” value in the assay with U-698-M [2] (setting [5]) came out at 0.956. On the same counts, the results for `CCN(CCO)CCCOc1ccc2c(Nc3cc(CC(=O)Nc4cccc(F)c4)[nH]n3)ncnc2c1` [AZD2811] + O=C(c1cc(Cc2n[nH]c(=O)c3ccccc23)ccc1F)N1CCN(C(=O)C2CC2)CC1 [Olaparib] are 0.0384 and 0.479. As to `CN(CCO)CC[C@H](CSc1ccccc1)Nc1ccc(S(=O)(=O)NC(=O)c2ccc(N3CCC([C@@H](O)c4ccccc4-c4ccc(Cl)cc4)CC3)cc2)cc1S(=O)(=O)C(F)(F)F` [AZD4320] + C1CN(CCC1(C(=O)N[C@@H](CCO)C2=CC=C(C=C2)Cl)N)C3=NC=NC4=C3C=CN4 [Capivasertib], the Bliss excess with U-698-M [1] (setting [9]) came to 0.0056. Further, the “combination Emax” value in the assay on U-698-M [2] (setting [9]) worked out at 0.272. Turning to `CN(CCO)CC[C@H](CSc1ccccc1)Nc1ccc(S(=O)(=O)NC(=O)c2ccc(N3CCC([C@@H](O)c4ccccc4-c4ccc(Cl)cc4)CC3)cc2)cc1S(=O)(=O)C(F)(F)F` [AZD4320] + C=CCn1c(=O)c2cnc(Nc3ccc(N4CCN(C)CC4)cc3)nc2n1-c1cccc(C(C)(C)O)n1 [AZD1775], the Bliss excess in the assay on U-698-M [1] (setting [3]) was -0.0221. Moreover, the “combination Emax” value in the assay with U-698-M [2] (setting [3]) stood at 0.931. `CN(CCO)CC[C@H](CSc1ccccc1)Nc1ccc(S(=O)(=O)NC(=O)c2ccc(N3CCC([C@@H](O)c4ccccc4-c4ccc(Cl)cc4)CC3)cc2)cc1S(=O)(=O)C(F)(F)F` [AZD4320] + CC(=O)O[C@H]1C(=O)[C@@]2(C)[C@H]([C@H](OC(=O)c3ccccc3)[C@]3(O)C[C@H](OC(=O)[C@H](O)[C@@H](NC(=O)c4ccccc4)c4ccccc4)C(C)=C1C3(C)C)[C@]1(OC(C)=O)CO[C@@H]1C[C@@H]2O [Paclitaxel]: the Bliss excess in the assay with U-698-M [1] (setting [9]) was -0.0109. For the same compound, in the assay on U-698-M [2] (first compound max 1 µM, partner max 3 µM, 7x7, may be a limit of the assay), the “combination Emax” value worked out at 1. Regarding `CN(CCO)CC[C@H](CSc1ccccc1)Nc1ccc(S(=O)(=O)NC(=O)c2ccc(N3CCC([C@@H](O)c4ccccc4-c4ccc(Cl)cc4)CC3)cc2)cc1S(=O)(=O)C(F)(F)F` [AZD4320] + CCN(CCO)CCCOc1ccc2c(Nc3cc(CC(=O)Nc4cccc(F)c4)[nH]n3)ncnc2c1 [AZD2811], the Bliss excess in the assay on U-698-M [1] (setting [4]) is -0.0275. For the same compound, the “combination Emax” value in the assay on U-698-M [2] (setting [4]) was 0.138. On the same counts, the results for `CN(CCO)CC[C@H](CSc1ccccc1)Nc1ccc(S(=O)(=O)NC(=O)c2ccc(N3CCC([C@@H](O)c4ccccc4-c4ccc(Cl)cc4)CC3)cc2)cc1S(=O)(=O)C(F)(F)F` [AZD4320] + CN(C)CCCOc1ccc(-c2ccc3ncc4c(c3c2)n(C2CCOCC2)c(=O)n4C)cn1 [AZD0156] are -0.0291 and 0.183. Turning to `CN(CCO)CC[C@H](CSc1ccccc1)Nc1ccc(S(=O)(=O)NC(=O)c2ccc(N3CCC([C@@H](O)c4ccccc4-c4ccc(Cl)cc4)CC3)cc2)cc1S(=O)(=O)C(F)(F)F` [AZD4320] + CS(=O)(=O)CCNCc1ccc(-c2ccc3ncnc(Nc4ccc(OCc5cccc(F)c5)c(Cl)c4)c3c2)o1 [Lapatinib], the Bliss excess with U-698-M [1] (setting [5]) was -0.0415. Also, the “combination Emax” value in the assay on U-698-M [2] (setting [5]) came to 0.551. With `CN(CCO)CC[C@H](CSc1ccccc1)Nc1ccc(S(=O)(=O)NC(=O)c2ccc(N3CCC([C@@H](O)c4ccccc4-c4ccc(Cl)cc4)CC3)cc2)cc1S(=O)(=O)C(F)(F)F` [AZD4320] + C[C@@H]1COCCN1C2=NC(=NC(=C2)C3(CC3)[S@](=N)(=O)C)C4=C5C=CNC5=NC=C4 [AZD6738], in the assay on U-698-M [1] (setting [5]), the Bliss excess was -0.0427. Besides, the “combination Emax” value in the assay with U-698-M [2] (setting [5]) was found to be 0.773. In the case of `CN(CCO)CC[C@H](CSc1ccccc1)Nc1ccc(S(=O)(=O)NC(=O)c2ccc(N3CCC([C@@H](O)c4ccccc4-c4ccc(Cl)cc4)CC3)cc2)cc1S(=O)(=O)C(F)(F)F` [AZD4320] + C[C@@H](Nc1cc(F)cc(F)c1)c1cc(C(=O)N(C)C)cc2c(=O)cc(N3CCOCC3)oc12 [AZD8186], the Bliss excess in the assay with U-698-M [1] (setting [9]) was determined as 0.0074. In addition, the “combination Emax” value in the assay with U-698-M [2] (setting [9]) turned out to be 0.348. For the compound `CN(CCO)CC[C@H](CSc1ccccc1)Nc1ccc(S(=O)(=O)NC(=O)c2ccc(N3CCC([C@@H](O)c4ccccc4-c4ccc(Cl)cc4)CC3)cc2)cc1S(=O)(=O)C(F)(F)F` [AZD4320] + Cc1cc2ncnn2cc1Nc1ncc2c(n1)n(C1CCOCC1)c(=O)n2C [AZD7648], the Bliss excess with U-698-M [1] (setting [5]) is -0.016. Also, in the assay on U-698-M [2] (setting [5]), the “combination Emax” value was determined as 0.415. In the case of `CN(CCO)CC[C@H](CSc1ccccc1)Nc1ccc(S(=O)(=O)NC(=O)c2ccc(N3CCC([C@@H](O)c4ccccc4-c4ccc(Cl)cc4)CC3)cc2)cc1S(=O)(=O)C(F)(F)F` [AZD4320] + Cn1cnc2c(F)c(Nc3ccc(Br)cc3Cl)c(C(=O)NOCCO)cc21 [Selumetinib], the Bliss excess in the assay on U-698-M [1] (setting [9]) was 0.058. The “combination Emax” value in the assay on U-698-M [2] (setting [9]) stood at 0.42. On to `CN(CCO)CC[C@H](CSc1ccccc1)Nc1ccc(S(=O)(=O)NC(=O)c2ccc(N3CCC([C@@H](O)c4ccccc4-c4ccc(Cl)cc4)CC3)cc2)cc1S(=O)(=O)C(F)(F)F` [AZD4320] + Nc1ccn([C@@H]2O[C@H](CO)[C@@H](O)C2(F)F)c(=O)n1 [Gemcitabine], for which, in the assay on U-698-M [1] (setting [10]), the Bliss excess is -0.0159. The “combination Emax” value with U-698-M [2] (setting [10]) turned out to be 0.595. With `COc1nnc2ccc(N3CCC(c4ccc(OCCN5CCN(C)C(=O)[C@H]5C)cc4)CC3)nn12` [AZD5153] + C=CCn1c(=O)c2cnc(Nc3ccc(N4CCN(C)CC4)cc3)nc2n1-c1cccc(C(C)(C)O)n1 [AZD1775], the Bliss excess in the assay with U-698-M [1] (setting [3]) was -0.0574. Also, the “combination Emax” value with U-698-M [2] (setting [3]) was 0.961. Take `Cc1c2c(nn1C)CSCc1cc(n(C)n1)CSc1cc(c3ccccc3c1)OCCCc1c(C(=O)O)n(C)c3c-2c(Cl)ccc13` [AZD5991] + C=CCn1c(=O)c2cnc(Nc3ccc(N4CCN(C)CC4)cc3)nc2n1-c1cccc(C(C)(C)O)n1 [AZD1775]: the “combination Emax” value in the assay with U-698-M [2] (first compound max 1 µM, partner max 1 µM, may be a limit of the assay) amounted to 1.
